US20050171151A1, “Methods of treating hyperlipidemia” (Allergan, Inc., priority 2001, published 2005)
Where “and” joins values, the source holds several entries; their conditions need not be identical. Identical values can stand only once. Entries after “also recorded” stand apart in the source; their conditions may differ. Like-named read-outs stand apart in the source and are kept apart here. One block for each compound: values may come before it.

Assays:
serum triglycerides [1] = experiment: Serum triglycerides (STG) in male SJL mice; assay type: in vivo; conditions: for Serum triglycerides, Day 4 0 hr (2 pm), group mean / Serum triglycerides, Day 3 8 a.m., group mean / Serum triglycerides, Day 4 0 hr (2 pm): 20 mg/kg oral gavage daily; for Serum triglycerides, Day 3 8 a.m., group mean / Serum triglycerides, Day 3 8 a.m.: non-fasting; for Serum triglycerides, Day 3 8 a.m. / Serum triglycerides, Day 4 0 hr (2 pm): individual male SJL mice, 20 mg/kg; for Serum triglycerides, Day 3 8 a.m.: 20 mg/kg oral gavage daily in corn oil; for Effect on non-fasting STG: Day 3, 8 a.m.
Procedure: Male SJL mice were dosed orally with vehicle, AGN 197116 (RARα antagonist) or AGN 194310 (RAR pan-antagonist) for 4 consecutive days. The structure of AGN 194310 is described herein below. The structure of AGN 197116 is: [drawing 16]
The test compounds were dissolved in corn oil and given at a dosage/volume of 20 mg/5 ml/kg. […]
(§1) On day 4, animals were fasted after dosing, starting at 8 a.m. Following 6 hours of fasting, blood samples were collected prior to intravenous injection of WR-1339 at 100 mg/5 ml/kg. Additional serum samples were collected at 1 and 2 hours after WR-1339 injection. WR-1339 is a detergent which inactivates lipoprotein lipase and thus prevents the removal of triglycerides from circulation. By measuring the increase of STG after WR-1339 administration in fasted animals, one can estimate the hepatic triglyceride (HTG) output during fasting.
(§2) Due to the lack of effect of AGN 197116 at 20 mg/kg, the dose was increased to 100 mg/kg in the same set of mice. STG was determined on day 3 prior to dosing (Day 3, 8 a.m.). […] To ensure that AGN 197116 would be bioavailable, AGN 197116 was dissolved in DMSO and given by intraperitoneal injections, once at 4 p.m. on day 3 and once at 8 a.m. on day 4, at a dosage of 100 mg/kg/injection. Administration of WR-1339 and blood collections on day 4 were similarly conducted as described above.

[2] = tested on: hepatic triglyceride output; experiment: Hepatic triglyceride (HTG) output: increase of STG after WR-1339 in fasted male SJL mice; assay type: in vivo; conditions: for Serum triglycerides, Day 4 post-WR-1339 1 hr (3 p.m.), group mean / Serum triglycerides, Day 4 post-WR-1339 2 hr (4 p.m.), group mean / Serum triglycerides, Day 4 post-WR-1339 1 hr (3 p.m.) / Serum triglycerides, Day 4 post-WR-1339 2 hr (4 p.m.): fasted; for Effect on HTG output after WR-1339 injection: 20 mg/kg orally for 4 days
Procedure: as §1, §2

serum triglycerides [3] = experiment: Serum triglycerides in cynomolgus monkeys treated orally (Study PT-99-10); assay type: in vivo
Procedure: (§3) Five male cynomologus monkeys were employed in Study PT-99-10. […] Its structure is described herein below. The remaining two were similarly treated with a vehicle to serve as control. Serum samples were collected on days 1, 8, 15, 22 and 25 for triglyceride determination. Serum samples from days 8, 15, 22 and 25 were also assayed for the concentration of AGN 194310.

[4] = cynomolgus monkey, in vivo
Procedure: as §3, with “PT-99-10. Three of the five monkeys were treated with AGN 194310 at a daily dosage of 1.25 mg/kg (orally) for a period of 25 days.” for “PT-99-10.”

[5] = Clinical observation, body weight and food consumption of treated monkeys; assay type: in vivo, cynomolgus monkeys
Description: AGN 194310 is an RAR antagonist or inverse agonist. Its structure is described herein below.

Stability to light = assay type: physicochemical
[6] = tested on: serum lipids (triglyceride, cholesterol, LDL, HDL); conditions: for Triglyceride level after treatment: with diet and exercise
[7] = group mean, male SJL mice, after 6 hours fasting, before WR-1339
[8] = after 6 hours fasting, before WR-1339
[9] = male SJL mice, 20 mg/kg oral gavage daily, 1 hr after 100 mg/kg tyloxapol IV
[10] = male SJL mice, 20 mg/kg oral gavage daily, 2 hr after 100 mg/kg tyloxapol IV
[11] = individual male SJL mice, 20 mg/kg oral gavage daily, 1 hr after 100 mg/kg tyloxapol IV
[12] = individual male SJL mice, 20 mg/kg oral gavage daily, 2 hr after 100 mg/kg tyloxapol IV

Compound: Cc1ccc(C2=CCC(C)(C)c3cc(O)c(C(=O)Nc4ccc(C(=O)O)c(F)c4)cc32)cc1 [AGN 197116]
Effect on STG (serum triglycerides [1]; SJL mice, 100 mg/kg orally, Day 3, 8 a.m. prior to dosing): no lowering of STG was observed | Effect on STG (serum triglycerides [1]; SJL mice, 16 hours after a single intraperitoneal 100 mg/kg dose in DMSO (Day 4, 8 a.m.)): clear lowering of STG | Effect on fasting STG (serum triglycerides [1]; SJL mice, intraperitoneal 100 mg/kg/injection, after fasting (Day 4, 2 p.m.)): this effect disappeared after fasting | Serum triglycerides, Day 4 post-WR-1339 0 hr (2 pm), group mean (serum triglycerides [1]; group mean, SJL mice, 100 mg/kg oral then I.P., after 6 hours fasting, before WR-1339): 50 | Serum triglycerides, Day 4 0 hr (8 am), group mean (serum triglycerides [1]; group mean, SJL mice, 16 hours after a single 100 mg/kg I.P. dose): 79 | Serum triglycerides, Day 3 0 Hour, group mean (serum triglycerides [1]; group mean, SJL mice, Day 1-3 100 mg/kg oral, Day 3 prior to dosing): 118 | Serum triglycerides, Day 4 0 hr (2 pm), group mean (serum triglycerides [1]; [7]): 72.4 | Serum triglycerides, Day 3 8 a.m., group mean (serum triglycerides [1]; group mean, male SJL mice): 123.0 | Serum triglycerides, Day 4 0 hr (8 am) (serum triglycerides [1]; individual SJL mice, 16 hours after a single 100 mg/kg I.P. dose (after Day 1-3 100 mg/kg oral), 100 mg/kg): 58 and 79 and 51 and 114 and 50 and 125 | Serum triglycerides, Day 4 post-WR-1339 0 hr (2 pm) (serum triglycerides [1]; individual SJL mice, Day 1-3 100 mg/kg oral, Day 3-4 100 mg/kg I.P., after 6 hours fasting, before WR-1339, 100 mg/kg): 42 mg/dL (2×) and 36 mg/dL and 73 mg/dL and 59 mg/dL and 50 mg/dL | Serum triglycerides, Day 3 0 Hour (serum triglycerides [1]; individual SJL mice, Day 1-3 100 mg/kg oral, Day 3 prior to dosing, 100 mg/kg): 81 and 104 and 103 and 139 and 107 and 171 | Serum triglycerides, Day 3 8 a.m. (serum triglycerides [1]): 128.7 and 124 and 150.3 and 110.5 and 118.6 and 124.7 and 112.5 and 106.4 and 131.4 | Serum triglycerides, Day 4 0 hr (2 pm) (serum triglycerides [1]; [8]): 63.1 and 91.7 and 43 and 72.1 and 90.8 and 76 and 68.2 and 73.4 (2×) | Effect on non-fasting STG (serum triglycerides [1]; male SJL mice, 20 mg/kg orally): not observed | Effect on HTG output ([2]; SJL mice, intraperitoneal injection 100 mg/kg/injection): reduced | Serum triglycerides, Day 4 post-WR-1339 1 hr (3 p.m.), group mean ([2]; SJL mice, 100 mg/kg oral then I.P., 1 hr after WR-1339): 222 | Serum triglycerides, Day 4 post-WR-1339 2 hr (4 p.m.), group mean ([2]; SJL mice, 100 mg/kg oral then I.P., 2 hr after WR-1339): 345 | Serum triglycerides, Day 4 post-WR-1339 1 hr (3 p.m.), group mean [2, 9]: 334.2 | Serum triglycerides, Day 4 post-WR-1339 2 hr (4 p.m.), group mean [2, 10]: 646.8 | Serum triglycerides, Day 4 post-WR-1339 1 hr (3 p.m.) ([2]; individual SJL mice, Day 1-3 100 mg/kg oral, Day 3-4 100 mg/kg I.P., 1 hr after WR-1339, 100 mg/kg): 220 and 195 and 248 and 345 and 126 and 197 | Serum triglycerides, Day 4 post-WR-1339 2 hr (4 p.m.) ([2]; individual SJL mice, Day 1-3 100 mg/kg oral, Day 3-4 100 mg/kg I.P., 2 hr after WR-1339, 100 mg/kg): 285 and 272 and 396 and 531 and 200 and 387 | Serum triglycerides, Day 4 post-WR-1339 1 hr (3 p.m.) [2, 11]: 360.1 and 380.1 and 464.1 and 241.9 and 331.7 and 329.8 and 262.6 and 311 and 326.5 | Serum triglycerides, Day 4 post-WR-1339 2 hr (4 p.m.) [2, 12]: 726.9 and 723.7 and 770.2 and 590 and 575.2 and 700.4 and 462.8 and 659.1 and 612.6 | Effect on HTG output after WR-1339 injection ([2]; male SJL mice): not observed

Oral absorption [4]: well absorbed | Stability to normal light (Stability to light): relatively stable to normal light
Compound: CCc1ccc(C2=CC(C)(C)Sc3ccc(C#Cc4ccc(C(=O)O)cc4)cc32)cc1 [AGN 194310, 4-[[4-(4-ethylphenyl)-2,2-dimethyl-(2H)-thiochromen-6-yl]-ethynyl]-benzoic acid]
Serum triglycerides, Day 1 (serum triglycerides [3]; individual male cynomolgus monkeys, by gastric intubation daily, Day 1 (baseline)): 48.8 mg/dL and 52.5 mg/dL and 58.5 mg/dL | Serum triglycerides, Day 8 (serum triglycerides [3]; individual male cynomolgus monkeys, by gastric intubation daily, Day 8): 24.3 mg/dL and 21.6 mg/dL and 19.2 mg/dL | Serum triglycerides, Day 15 (serum triglycerides [3]; individual male cynomolgus monkeys, by gastric intubation daily, Day 15): 18.2 mg/dL and 30.7 mg/dL and 29.6 mg/dL | Serum triglycerides, Day 22 (serum triglycerides [3]; individual male cynomolgus monkeys, by gastric intubation daily, Day 22): 30.4 mg/dL and 20.6 mg/dL and 36.5 mg/dL | Serum triglycerides, Day 25 (serum triglycerides [3]; individual male cynomolgus monkeys, by gastric intubation daily, Day 25): 20.3 mg/dL and 23.4 mg/dL and 28.3 mg/dL | Serum triglycerides, Day 1, group mean (serum triglycerides [3]; mean of 3 monkeys, by gastric intubation, Day 1 (baseline)): 53.3 mg/dL | Serum triglycerides, Day 8, group mean (serum triglycerides [3]; mean of 3 monkeys, by gastric intubation, Day 8): 21.7 mg/dL | Serum triglycerides, Day 15, group mean (serum triglycerides [3]; mean of 3 monkeys, by gastric intubation, Day 15): 26.2 mg/dL | Serum triglycerides, Day 22, group mean (serum triglycerides [3]; mean of 3 monkeys, by gastric intubation, Day 22): 29.2 mg/dL | Serum triglycerides, Day 25, group mean (serum triglycerides [3]; mean of 3 monkeys, by gastric intubation, Day 25): 24.0 mg/dL | Effect on serum triglycerides (serum triglycerides [3]; monkeys, daily dose 1.25 mg/kg orally, 1.25 mg/kg): highly significant decrease of serum triglycerides; also recorded: lowers serum triglycerides | Average decrease of serum triglycerides compared to day 1 (baseline) (serum triglycerides [3]; per treated monkey, 1.25 mg/kg orally daily for 25 days, control monkeys increased 48% and 89%, 1.25 mg/kg): 52% and 54% and 51% | Body weight and rate of food consumption ([5]; 1.25 mg/kg orally daily, throughout the 25 day study): no change in body weight or rate of food consumption | Abnormal clinical signs ([5]; daily dose 1.25 mg/kg orally, 25 days): without any noticeable abnormal clinical signs | Serum triglycerides, Day 4 0 hr (2 pm), group mean (serum triglycerides [1]; [7]): 71.5 | Serum triglycerides, Day 3 8 a.m., group mean (serum triglycerides [1]; group mean, male SJL mice): 92.7 | Serum triglycerides, Day 3 8 a.m. (serum triglycerides [1]): 71.2 and 105.7 and 67.9 and 113.2 and 134.8 and 76.6 and 63.1 and 84.1 and 95.6 and 115.2 | Serum triglycerides, Day 4 0 hr (2 pm) (serum triglycerides [1]; [8]): 76.6 and 76 (2×) and 57.3 and 74.7 and 80.5 and 71.5 and 73.4 and 61.1 and 67.6 | Effect on non-fasting STG (serum triglycerides [1]; male SJL mice, 20 mg/kg orally): appeared to lower | Effect on fasting STG (serum triglycerides [1]; male SJL mice, 20 mg/kg orally, Day 4, 2 p.m.): but not fasting STG | Serum triglycerides, Day 4 post-WR-1339 1 hr (3 p.m.), group mean [2, 9]: 266.3 | Serum triglycerides, Day 4 post-WR-1339 2 hr (4 p.m.), group mean [2, 10]: 485.6 | Serum triglycerides, Day 4 post-WR-1339 1 hr (3 p.m.) [2, 11]: 216.8 and 307.2 and 294.9 and 311.7 and 238.7 and 303.9 and 260 and 252.3 and 210.9 | Serum triglycerides, Day 4 post-WR-1339 2 hr (4 p.m.) [2, 12]: 328.5 and 548 and 562.9 and 577.1 and 493.8 and 508 and 550 and 542.9 and 259.1 | Effect on HTG output after WR-1339 injection ([2]; male SJL mice): reduction of HTG output | Triglyceride level after treatment ([6]; Example 1, person, tablet 20 mg daily, 3 months, initial 440 mg/dL): 280 mg/dL | Triglyceride level after treatment ([6]; Example 2, person, tablet 50 mg twice daily, initial 950 mg/dL): 450 mg/dL | Side effects ([6]; human, in vivo): no side effects | Tolerability ([6]; human, in vivo): tolerates the medication well
